Experiments:
PI3Kalpha = PI3Kalpha (Homo sapiens, UniProt P42336); test: Biochemical PI3Kalpha assay (neomycin SPA, lipid phosphorylation); conditions: human recombinant GST-PI3K
Method: (§1) The efficacy of the compounds according to the invention in the inhibition of PI3K-induced lipid phosphorylation can be investigated in the following binding assay. The assay combines scintillation proximity assay (SPA) technology (Amersham) with the ability of neomycin (a polycationic antibiotic) to bind phospholipids with high affinity and specificity. […] The coating of SPA beads with neomycin allows the detection of phosphorylated lipid substrates after incubation with recombinant PI3K and radioactive ATP in the same well by trapping the radioactive phospholipids by the SPA beads owing to their specific binding to neomycin. […] After incubation at room temperature for 120 minutes with gentle stirring, the reaction was stopped by addition of 200 μl of a solution comprising 250 μg of neomycin-coated PVT-SPA beads, ATP 60 mM and EDTA 6.2 mM in PBS. The assay is incubated at room temperature for a further 60 minutes with gentle stirring in order to enable binding of the phospholipids to the neomycin-SPA beads. After precipitation of the neomycin-coated PVT-SPA beads over 5 minutes at 1500×g, radioactive Ptdlns(3)P is quantified by scintillation counting in a Wallac Micro-Beta™ plate counter.

PI3Kbeta = PI3Kbeta (Homo sapiens, UniProt P42338); test: Biochemical PI3Kbeta assay (neomycin SPA, lipid phosphorylation); conditions: human recombinant GST-PI3K
Method: as §1

[1] = biological target: recombinant PI3Kalpha (shortened form of the catalytic subunit) (Homo sapiens, UniProt P42336); test: BIACORE PI3K binding assay (SPR); conditions: 25° C.
Method: SPR measurements of the binding affinities and binding kinetics on PI3Kalpha surfaces with the aid of Biacore systems. The experiments are carried out on a Biacore S51 “Compound Characterization” or a Biacore T100 instrument utilising the default application “Kinetics/Affinity” Experimental conditions: recombinant PI3Kalpha (shortened form of the catalytic subunit, missing N terminal from about 100 to 150 aa, Mw about 110 kDa, prepared by Proteros Biostructures GmbH) is immobilised on Biacore CM5 chips (25° C., flow rate: 10 μl/min, utilising amine coupling at pH 7.40—Biacore Standard protocol). PI3Kalpha is employed in concentrations between 10 and 25 μg/ml. Depending on the duration of the injection time, immobilisation levels from 1700 to 11000 RU are achieved. The substances to be measured are added in the form of a titration series. The substance concentration is doubled for each subsequent injection. 10 different substance concentrations which cover a 500-fold dilution range are usually injected. […] Kinetic titration experiments are carried out at 25° C. with a flow rate of 30 μl/min, the sample contact time is 180 s, and the dissociation time is 240 s in a running buffer (20 mM HEPES pH7.40, 150 mM NaCl, 5 mM MgCl2, 1 mM DTT, 0.1 mM EDTA, 0.05% Tween 20) comprising 2% of DMSO. Buffer injections (as double references) identical to the sample injections are carried out in each case at the beginning of a continuous series. Solvent correction cycles (eight correction points, 1.4%-2.8% DMSO) are carried out at equal intervals. In order to condition the surface, at least five start-up cycles (buffer injections) are carried out. Data points are collected with a sample rate of 10 Hz. Surface regeneration is carried out after each measurement cycle, apart from after the solvent correction runs. For this purpose, two times 100 mM NaHCO3 pH 8.60 are injected for 30 sec. Data sets are processed and analysed using the Biacore S51 Evaluation software, version 1.2.1, or Biacore T100 Evaluation, version 2.0. Solvent-corrected and double-referenced association and dissociation phase data are adapted to a simple 1:1 interaction model with mass transport limitations.

[2] = system: PI3K-dependent phosphorylation of PKB at Serin 473 in PC3 cells; test: Cellular PI3K assay (P-S473-PKB Luminex assay in PC3 cells); assay type: cell-based; conditions: Homo sapiens, PC-3, 0.5 h; PC3 cells, 30 min, serum-free, P-S473-PKB; read-out: IC50 (cell)
Method: The cellular assay for determination of the P-S473-PKB level is carried out as a Luminex assay in 96-well format in PC3 cells.
PC3 cells are sown out with 20,000 cells per well in 100 μl medium (45% […]/45% Ham's F12/10% FCS) and incubated on the following day for 30 min with a serial dilution of the test substance (7 concentrations) under serum-free conditions. The cells are subsequently lysed using 90 μl of lysis buffer (20 mM Tris/HCl pH 8.0, 150 mM NaCl, 1% NP40, 10% glycerol, 1% phosphatase inhibitor I, 1% phosphatase inhibitor II, 0.1% protease inhibitor cocktail III, 0.01% benzonase) per well, and the lysates are separated off from insoluble cell constituents by means of centrifugation through a 96-well filter plate (0.65 μm). The lysates are incubated overnight at 4° C. with shaking with Luminex beads to which an anti-total PKB antibody is coupled. The detection is carried out on the following day by addition of a P-S473-PKB antibody and a species-specific PE-labelled secondary antibody. The detection of P-S473-PKB is carried out by measurement in a Luminex100 instrument by determination of 100 events per cavity in a measurement time of 60 sec.

DNA-PK protein complex = DNA-PK protein complex (Homo sapiens, UniProt P78527); test: Biochemical DNA-PK assay (FlashPlate)
Method: The kinase assay is carried out in […] microtitre FlashPlates®, coated with streptavidin. […] The reaction is stopped by addition of 50 μl/well of 200 mM EDTA. After incubation for 30 minutes, the liquids are removed at room temperature. Each well is washed three times with 100 μl of 0.9% NaCl solution. Non-specific reaction (blank) is determined using a proprietary kinase inhibitor (10 μM). The radioactivity is measured by means of a Topcount. […] Todd Eary, J. G. Schiro, H. Huang, L. E. Burgess, E. A. Kesicki, and J. Halbrook.

Sequence of recombinant PI3Kalpha (shortened form of the catalytic subunit) (P42336 151-1068 limits assumed): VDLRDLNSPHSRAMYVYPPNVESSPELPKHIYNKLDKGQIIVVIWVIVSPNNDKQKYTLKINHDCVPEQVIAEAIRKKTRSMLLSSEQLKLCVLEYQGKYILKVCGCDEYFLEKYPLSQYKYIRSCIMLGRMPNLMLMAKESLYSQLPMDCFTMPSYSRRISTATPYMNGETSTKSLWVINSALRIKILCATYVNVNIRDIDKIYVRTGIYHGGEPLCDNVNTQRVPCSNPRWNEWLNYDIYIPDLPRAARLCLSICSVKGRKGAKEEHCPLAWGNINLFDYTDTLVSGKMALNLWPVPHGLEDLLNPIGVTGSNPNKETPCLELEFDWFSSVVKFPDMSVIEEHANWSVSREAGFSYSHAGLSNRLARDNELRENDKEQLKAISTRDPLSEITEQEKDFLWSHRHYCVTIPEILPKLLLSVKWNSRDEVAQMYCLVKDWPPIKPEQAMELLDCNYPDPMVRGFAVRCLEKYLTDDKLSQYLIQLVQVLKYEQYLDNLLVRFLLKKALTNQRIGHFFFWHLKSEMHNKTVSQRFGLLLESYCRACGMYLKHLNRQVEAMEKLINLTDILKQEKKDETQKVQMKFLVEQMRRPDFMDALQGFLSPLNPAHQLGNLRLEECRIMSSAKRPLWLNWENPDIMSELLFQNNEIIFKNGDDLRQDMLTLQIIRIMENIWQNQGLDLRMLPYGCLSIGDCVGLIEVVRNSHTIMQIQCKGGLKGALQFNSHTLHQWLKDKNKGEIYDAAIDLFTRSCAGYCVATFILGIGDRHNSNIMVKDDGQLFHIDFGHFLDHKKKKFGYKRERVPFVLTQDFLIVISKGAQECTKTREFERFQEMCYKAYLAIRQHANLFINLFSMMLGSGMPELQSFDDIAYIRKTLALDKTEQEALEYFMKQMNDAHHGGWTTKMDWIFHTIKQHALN
Sequence of PI3Kbeta (P42338 whole entry): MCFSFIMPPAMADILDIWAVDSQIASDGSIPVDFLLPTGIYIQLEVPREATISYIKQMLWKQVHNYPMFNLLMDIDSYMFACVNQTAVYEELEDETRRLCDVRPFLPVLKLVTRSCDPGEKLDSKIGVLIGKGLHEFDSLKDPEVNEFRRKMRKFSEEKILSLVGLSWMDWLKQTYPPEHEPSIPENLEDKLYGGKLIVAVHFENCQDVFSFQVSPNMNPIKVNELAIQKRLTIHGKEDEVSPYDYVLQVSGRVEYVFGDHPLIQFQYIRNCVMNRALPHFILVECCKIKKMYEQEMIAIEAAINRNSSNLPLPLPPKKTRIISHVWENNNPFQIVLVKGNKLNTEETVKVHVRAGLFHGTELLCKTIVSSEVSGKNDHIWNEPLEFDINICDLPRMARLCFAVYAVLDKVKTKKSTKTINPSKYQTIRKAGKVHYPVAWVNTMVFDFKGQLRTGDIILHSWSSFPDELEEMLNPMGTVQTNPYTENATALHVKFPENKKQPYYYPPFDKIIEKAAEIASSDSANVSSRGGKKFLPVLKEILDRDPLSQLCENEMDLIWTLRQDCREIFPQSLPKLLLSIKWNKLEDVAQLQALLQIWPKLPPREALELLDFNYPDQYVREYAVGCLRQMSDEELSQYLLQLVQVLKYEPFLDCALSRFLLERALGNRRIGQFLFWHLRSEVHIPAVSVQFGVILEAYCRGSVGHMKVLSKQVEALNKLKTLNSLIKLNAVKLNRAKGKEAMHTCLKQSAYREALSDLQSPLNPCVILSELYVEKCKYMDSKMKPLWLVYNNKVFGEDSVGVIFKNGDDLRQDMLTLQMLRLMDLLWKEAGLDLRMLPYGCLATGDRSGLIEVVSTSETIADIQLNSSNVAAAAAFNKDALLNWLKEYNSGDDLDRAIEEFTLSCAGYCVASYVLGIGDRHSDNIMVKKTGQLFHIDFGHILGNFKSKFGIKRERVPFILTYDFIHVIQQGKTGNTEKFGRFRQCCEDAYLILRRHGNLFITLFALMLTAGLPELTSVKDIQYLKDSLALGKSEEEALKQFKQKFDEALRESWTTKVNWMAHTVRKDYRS
Sequence of PI3Kbeta (P27986 whole entry partner): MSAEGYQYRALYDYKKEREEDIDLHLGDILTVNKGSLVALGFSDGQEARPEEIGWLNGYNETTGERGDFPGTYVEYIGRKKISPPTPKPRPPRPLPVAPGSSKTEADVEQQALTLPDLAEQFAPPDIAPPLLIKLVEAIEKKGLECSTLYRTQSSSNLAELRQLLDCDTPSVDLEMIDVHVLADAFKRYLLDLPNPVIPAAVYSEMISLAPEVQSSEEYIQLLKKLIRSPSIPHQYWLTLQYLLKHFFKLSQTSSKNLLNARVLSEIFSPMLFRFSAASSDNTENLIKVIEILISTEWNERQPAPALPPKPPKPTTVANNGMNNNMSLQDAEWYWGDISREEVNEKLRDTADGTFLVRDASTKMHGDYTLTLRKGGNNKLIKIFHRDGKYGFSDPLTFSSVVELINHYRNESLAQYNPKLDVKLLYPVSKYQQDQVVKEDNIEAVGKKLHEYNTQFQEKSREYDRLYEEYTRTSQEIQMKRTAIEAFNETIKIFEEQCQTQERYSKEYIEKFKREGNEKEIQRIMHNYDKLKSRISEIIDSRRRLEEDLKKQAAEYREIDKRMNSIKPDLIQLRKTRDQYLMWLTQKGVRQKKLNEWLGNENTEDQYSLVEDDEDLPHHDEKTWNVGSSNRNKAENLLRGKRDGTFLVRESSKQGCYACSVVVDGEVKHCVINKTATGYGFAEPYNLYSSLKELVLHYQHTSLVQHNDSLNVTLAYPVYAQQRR
Sequence of PI3Kalpha (P42336 whole entry): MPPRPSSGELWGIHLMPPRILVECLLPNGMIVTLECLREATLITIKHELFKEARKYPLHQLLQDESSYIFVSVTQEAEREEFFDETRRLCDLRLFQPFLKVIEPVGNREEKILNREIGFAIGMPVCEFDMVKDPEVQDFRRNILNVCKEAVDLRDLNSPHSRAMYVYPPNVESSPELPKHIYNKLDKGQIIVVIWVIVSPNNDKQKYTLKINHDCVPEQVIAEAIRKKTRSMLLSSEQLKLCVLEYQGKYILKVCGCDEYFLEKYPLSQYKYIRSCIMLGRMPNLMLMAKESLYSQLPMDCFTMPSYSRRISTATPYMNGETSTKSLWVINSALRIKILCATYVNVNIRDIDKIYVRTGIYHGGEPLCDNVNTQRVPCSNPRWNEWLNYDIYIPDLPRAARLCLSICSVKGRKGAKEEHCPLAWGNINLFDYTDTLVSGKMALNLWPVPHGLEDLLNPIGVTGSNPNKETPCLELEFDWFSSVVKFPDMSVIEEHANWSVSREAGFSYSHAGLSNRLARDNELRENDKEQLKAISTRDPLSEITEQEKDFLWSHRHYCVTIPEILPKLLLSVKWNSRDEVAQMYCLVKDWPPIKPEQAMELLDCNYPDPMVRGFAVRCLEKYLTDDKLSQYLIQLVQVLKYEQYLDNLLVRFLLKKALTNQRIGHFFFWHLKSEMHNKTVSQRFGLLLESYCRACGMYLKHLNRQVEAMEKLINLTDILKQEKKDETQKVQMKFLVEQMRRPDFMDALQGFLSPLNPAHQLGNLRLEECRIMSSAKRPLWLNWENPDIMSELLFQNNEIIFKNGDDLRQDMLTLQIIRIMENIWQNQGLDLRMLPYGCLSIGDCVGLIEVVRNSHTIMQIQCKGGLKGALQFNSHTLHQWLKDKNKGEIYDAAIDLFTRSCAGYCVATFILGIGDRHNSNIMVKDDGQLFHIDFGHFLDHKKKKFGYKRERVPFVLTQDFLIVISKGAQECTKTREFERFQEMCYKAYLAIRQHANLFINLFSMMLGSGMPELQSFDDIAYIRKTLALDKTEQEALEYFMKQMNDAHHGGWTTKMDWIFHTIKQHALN
Sequence of PI3Kalpha (P27986 whole entry partner): as the sequence (P27986 whole entry partner) above

SMILES | IC50 (PI3Kalpha) [nM] | IC50 (PI3Kbeta) [nM] | Kd [1] [nM] | IC50 [2] [nM] | IC50 (DNA-PK protein complex) [nM]
Cn1cc(-c2cc(-c3cnc4[nH]ccc4c3)ccn2)n(-c2ccc(N3CCOCC3)c(C(F)(F)F)c2)c1=O [Example A71, 1-Methyl-3-(4-morpholin-4-yl-3-trifluoromethylphenyl)-4-[4-(1H-pyrrolo[2,3-b]-pyridin-5-yl)pyridin-2-yl]-1,3-dihydroimidazol-2-one] | 100 to 10000 | 100 to 10000 | 0.1 to 100 | 0.1 to 100 | 0.1 to 100
Cn1cc(-c2cc(-c3cnc4[nH]ccc4c3)ccn2)n(-c2ccc(C#N)cc2)c1=O [Example A48, 4-{3-Methyl-2-oxo-5-[4-(1H-pyrrolo[2,3-b]pyridin-5-yl)pyridin-2-yl]-2,3-dihydro-imidazol-1-yl}benzonitrile] | 100 to 10000 | 100 to 10000 | 100 to 10000 | 100 to 10000 | 0.1 to 100
COc1ccc(Cn2c(-c3cc(-c4cnc5[nH]ncc5c4)ccn3)cn(C)c2=O)cc1 [Example A109, 3-(4-Methoxybenzyl)-1-methyl-4-[4-(1H-pyrazolo[3,4-b]pyridin-5-yl)pyridin-2-yl]-1,3-dihydroimidazol-2-one] | 100 to 10000 | 100 to 10000 | 100 to 10000 | 100 to 10000 | 0.1 to 100
CC(=O)N1CCN(c2ccc(-n3c(-c4cc(-c5ccc6[nH]ccc6c5)ccn4)cn(C)c3=O)cc2C(F)(F)F)CC1 [Example A89, 3-[4-(4-Acetylpiperazin-1-yl)-3-trifluoromethylphenyl]-4-[4-(1H-indol-5-yl)pyridin-2-yl]-1-methyl-1,3-dihydroimidazol-2-one] | 100 to 10000 | > 10000 | 100 to 10000 | 100 to 10000 | 100 to 10000
Cn1cc(-c2cc(-c3cnc(N)c(C#N)c3)ccn2)n(-c2ccc(C(C)(C)C#N)cc2)c1=O [Example A37, 6-Amino-2′-{3-[4-(cyanodimethylmethyl)phenyl]-1-methyl-2-oxo-2,3-dihydro-1H-imidazol-4-yl}-[3,4′]bipyridinyl-5-carbonitrile] | 100 to 10000 | 100 to 10000 | 0.1 to 100 | 100 to 10000 | 0.1 to 100
Cn1cc(-c2cc(-c3cnc(N)c(C(F)(F)F)c3)ccn2)n(-c2ccc(N3CCNCC3)c(C(F)(F)F)c2)c1=O [Example A56, 4-(6-Amino-5-trifluoromethyl-[3,4′]bipyridinyl-2′-yl)-1-methyl-3-(4-piperazin-1-yl-3-trifluoromethylphenyl)-1,3-dihydroimidazol-2-one] | 100 to 10000 | 100 to 10000 | 0.1 to 100 | 100 to 10000 | 100 to 10000
Cn1cc(-c2cc(-c3cnc(N)c(C(F)(F)F)c3)ccn2)n(-c2cccc(C#N)c2)c1=O [Example A64, 3-[5-(6-Amino-5-trifluoromethyl-[3,4′]bipyridinyl-2′-yl)-3-methyl-2-oxo-2,3-dihydroimidazol-1-yl]benzonitrile] | 100 to 10000 | 100 to 10000 | 0.1 to 100 | 100 to 10000 | 0.1 to 100
CCc1cc(-c2c[nH]c3ncc(-c4ccnc(-c5cn(C)c(=O)n5-c5ccc(C(C)(C)C#N)cc5)c4)cc23)nc(N)n1 [Example A99, 2-[4-(5-{4-[3-(2-Amino-6-ethylpyrimidin-4-yl)-1H-pyrrolo[2,3-b]pyridin-5-yl]-pyridin-2-yl}-3-methyl-2-oxo-2,3-dihydroimidazol-1-yl)phenyl]-2-methylpropionitrile] | 100 to 10000 | 100 to 10000 | 100 to 10000 | 100 to 10000 | 0.1 to 100
COc1ccc(Cn2c(-c3cc(-c4cnc(N)c(C(F)(F)F)c4)ccn3)cn(C)c2=O)cc1 [Example A110, 4-(6-Amino-5-trifluoromethyl-[3,4′]bipyridinyl-2′-yl)-3-(4-methoxybenzyl)-1-methyl-1,3-dihydroimidazol-2-one] | 100 to 10000 | 100 to 10000 | 100 to 10000 | 100 to 10000 | 100 to 10000
Cn1cc(-c2cc(-c3cnc(N)c(C(F)(F)F)c3)ccn2)n(-c2ccc(F)c(C(F)(F)F)c2)c1=O [Example A97, 4-(6-Amino-5-trifluoromethyl-[3,4′]bipyridinyl-2′-yl)-3-(4-fluoro-3-trifluoromethyl-phenyl)-1-methyl-1,3-dihydroimidazol-2-one] | 100 to 10000 | 100 to 10000 | 100 to 10000 | 100 to 10000 | 100 to 10000
Cc1cc2cc(-c3ccnc(-c4cn(C)c(=O)n4-c4ccc(N5CCN(C)CC5)c(C(F)(F)F)c4)c3)cnc2[nH]1 [Example A88, 1-Methyl-3-[4-(4-methylpiperazin-1-yl)-3-trifluoromethylphenyl]-4-[4-(2-methyl-1H-pyrrolo[2,3-b]pyridin-5-yl)pyridin-2-yl]-1,3-dihydroimidazol-2-one] | 100 to 10000 | 100 to 10000 | 100 to 10000 | 100 to 10000 | 100 to 10000
Cn1cc(-c2cc(-c3ccc(N)nc3)ccn2)n(-c2ccc(N3CCNCC3)c(C(F)(F)F)c2)c1=O [Example A59, 4-(6-Amino-[3,4′]bipyridinyl-2′-yl)-1-methyl-3-(4-piperazin-1-yl-3-trifluoromethyl-phenyl)-1,3-dihydroimidazol-2-one] | 100 to 10000 | 100 to 10000 | 0.1 to 100 | 100 to 10000 | 0.1 to 100
Cn1cc(-c2cc(-c3cnc4[nH]ccc4c3)ccn2)n(-c2ccc(C(C)(C)C(=O)O)cc2)c1=O [Example A33, 2-Methyl-2-(4-{3-methyl-2-oxo-5-[4-(1H-pyrrolo[2,3-b]pyridin-5-yl)pyridin-2-yl]-2,3-dihydroimidazol-1-yl}phenyl)propionic acid] | 100 to 10000 | 100 to 10000 | 0.1 to 100 | > 10000 | 0.1 to 100
Cn1cc(-c2cc(-c3cnc4ccccc4c3)ccn2)n(-c2ccc(N3CCNCC3)c(C(F)(F)F)c2)c1=O [Example A19, 1-Methyl-3-(4-piperazin-1-yl-3-trifluoromethylphenyl)-4-(4-quinolin-3-ylpyridin-2-yl)-1,3-dihydroimidazol-2-one] | 100 to 10000 | 100 to 10000 | 100 to 10000 | 100 to 10000 | 100 to 10000
